Source: a melting point compilation (Tetko et al.; mined from patent text by program, amines drawn as free bases though some values may be those of a salt)

melting point [°C]	SMILES
220 to 222	COc1ccccc1-n1c(=O)[nH]c2c(C(N)=O)nc(-c3ccc4nc(C(F)(F)F)[nH]c4c3)nc21
61.5 to 62.5	COC(=O)C(C)(SC)c1ccc(C(OC)(OC)c2ccccc2)s1 (centres undefined)
108 to 110	CC1(C)CC(O)CC(C)(C)N1N=Nc1ccc([N+](=O)[O-])cc1
177 to 178	NNC(=O)Cc1c(F)cccc1F
123 to 125	CCN(CC)c1ccc(C2(c3ccc(N(C)C)cc3N(C)C)OC(=O)c3cc(N(C)C)ccc32)cc1 (centres undefined)
185 to 186	CCOC(=O)c1cc(NCc2ccccc2)c(N2CCOCC2)c(S(N)(=O)=O)c1
270 to 275	O=C1CCC(c2ccc3[nH]c(-c4ccccc4)cc3c2)=NN1
97 to 102	COc1cc(-c2nc(-c3ccc(N(C)C)cc3)c(C)o2)ccc1OC(C)=O
145 to 146	CCOC(=O)Cn1c(=O)c2cc(Cl)ccc2n(Cc2ccc(Br)cc2F)c1=O
205	CCOC(=O)C(C(=O)COC(C)C)C1c2ccccc2C(=O)N1c1ccc2ccc(Cl)nc2n1 (centres undefined)
219 to 221	CC(C)(C)OC(=O)N1CCCN(CC2=Nc3cccc4c(=O)[nH]nc(c34)N2)CC1
142 to 144	O=[N+]([O-])c1ccc(CN2CC=C(/C=C/c3ccccc3)CC2)cc1
210 to 215	O=C(NC(=O)c1c(F)cccc1Cl)Nc1ccc(Cl)cn1
170 to 172	CCc1ccc2oc(C(=O)Nc3ccc(-c4ccc(S(=O)(=O)NC(C(=O)OC)C(C)C)cc4)cc3)c(C)c2c1OC (centres undefined)
231	c1ccc(-c2ccc(-c3nc4n(n3)Cc3ccccc3-4)cc2)cc1
159	Cc1ccc2nc(Cl)c(C#N)c(Cl)c2c1
74 to 76	COC(=O)COc1ccc(OC2CCN(c3ccncc3)CC2)cc1
155 to 156	CC(n1cnc2cc(I)ccc2c1=O)C(O)(Cn1cncn1)c1ccc(F)cc1F (centres undefined)
151 to 153	O=C1NC(=O)C(Cc2ccc(OCc3cscn3)cc2)S1 (centres undefined)
146 to 149	CS(=O)(=O)c1ccc(-c2cccn2-c2ccc(F)c(Cl)c2)cc1
219 to 221	CS(=O)C1C(O)C(CO)OC1n1ccc(=O)[nH]c1=O (centres undefined)
245 to 247	Cc1c(F)cc(C(C)(C)C)c(O)c1-c1nc2cc(S(=O)(=O)C(F)(F)F)ccc2[nH]1

melting point [°C]	SMILES
146 to 148	Cc1ncsc1C(C)(O)c1cccs1 (centres undefined)
218 to 220	Cc1ccc(C(=O)NCCCN(C)CCCNC(=O)c2ccc(C)c3nc4ccccc4nc23)c2nc3ccccc3nc12
45 to 48	C=CCn1c(SC(Cl)=C(Cl)C#N)nnc1C(F)(F)F
130 to 131	CCOc1ccc2c(C)c(CCO)c(=O)oc2c1OCC
93 to 94	Cc1nc(Cc2ccc([N+](=O)[O-])cc2)sc1C
154 to 156	CSc1sc(-c2cccnc2)c2c1C(=O)C(=CO)C(C)(C)C2
241 to 243	CCc1ccc(-c2ccc3c(c2)C=C(C(=O)O)CCO3)cc1
107 to 109	NCCC1(O)CCc2ccccc2C12CCCC2 (centres undefined)
70 to 71	CCCN1C(=O)N2C[C@@H](Cc3ccccc3)N=C2c2[nH]c([C@H]3CC[C@H](CN)CC3)nc21
225 to 226	O=C(CN1CS(=O)CC1=O)N1CCN(C(c2ccccc2)c2ccccc2)CC1 (centres undefined)
102 to 104	O=C(CCl)c1ccc(-c2ccc(SC(F)F)cc2)cc1
212 to 215	NC(=O)c1ccc(-c2ccc3nnn(Cc4ccc5ncccc5c4)c3n2)cc1Cl
117 to 119	Cn1nc(C(F)(F)F)n(-c2ccc(I)cc2Cl)c1=S
177 to 179	O=C(O)c1ccc(OCc2ccccc2OCc2ccccc2)cc1
50 to 51	CC(Cl)COC(C)c1ccc(O)cc1 (single isomer, unassigned; (+))
149 to 151	O=C(C(Cl)Cl)N1CCSC12CCCCC2
175 to 177	CC(C)(C)c1cc(SC(Sc2cc(C(C)(C)C)c(O)c(C(C)(C)C)c2)c2cc(C(C)(C)C)c(O)c(C(C)(C)C)c2)cc(C(C)(C)C)c1O
238 to 241	CC(c1oc2ccccc2c(=O)c1-c1cccc(F)c1)n1nc(-c2ccc3c(c2)CCO3)c2c(N)ncnc21 (centres undefined)
161 to 162	CCCC1Sc2ccc(F)cc2C=C1c1ccc2c(c1)NC(=O)CO2 (centres undefined)
133	CC(C)C1COC(=O)N1C(=O)CCCCOCc1ccccc1 (centres undefined)
242 to 244	O=c1c2cc([N+](=O)[O-])ccc2cc2n1CCCS2(=O)=O
192 to 193	Oc1ccc2c(c1)CCCC(c1ccccc1)=C2c1ccc(OCCCCCI)cc1

melting point [°C]	SMILES
272 to 274	O=C(O)c1ccc(SC(=O)c2ccc(O)c(C34CC5CC(CC(C5)C3)C4)c2)cc1
154 to 155	COc1ccccc1Cc1nc2ccccc2c(=O)n1CCO
279 to 281	C[C@]1(COc2ccc(N3CCC(N4CCN(c5ccc(OC(F)(F)F)cc5)CC4)CC3)cc2)Cn2cc([N+](=O)[O-])nc2O1
84.9 to 88.7	Cc1ccccc1C(=O)N1CCC(=O)c2cc(F)c(Cl)cc21
99	CCCCCCc1cnc(-c2ccc(OC[C@H]3CC[C@H](CCCC)CC3)cc2)nc1
325 to 328	O=C(O)c1ccc2oc3c(c(=O)c2c1)CCC3=Cc1ccccn1
160 to 162	CNc1nc(C)c(C)cc1NC(=O)N1CCN(c2cc(C)cc(C)c2)CC1
234 to 235	FC(F)(F)c1cc(Cl)c(-n2ncc(-c3nc(Br)c(Br)[nH]3)n2)c(Cl)c1
99 to 100	OCCC12CC(c3ccccc31)c1ccccc12
233 to 235	O=C(O)[C@@H]1C[C@H](Cc2ccc(Cl)cc2)CN1
216	O=C(O)C(c1ccccc1)C1CCN(c2ccc([N+](=O)[O-])cc2)CC1 (centres undefined)
209 to 211	COCCNc1c(N)cc(C(=O)O)cc1S(N)(=O)=O
241	CCOC(=O)C1=C(C)Nc2nc(N3CCOCC3)nc(N3CCOCC3)c2C1c1ccccc1Cl (centres undefined)
108 to 109	Nc1ncnc2c1ncn2C1OC(CS)C(O)C1O (centres undefined)
108 to 109	Cc1ccc2nc(C(O)[C@H](C)NC(=O)OCc3ccccc3)oc2c1 (some centres undefined)
140 to 142	CCOC(=O)N1Cc2cc(NN=C(C)C)nnc2C(C)C1 (centres undefined)
86 to 91	COC(=O)C(C(=O)c1cn2c3c(cccc13)CCC2)c1cn(C(=O)OC(C)(C)C)c2ccccc12 (centres undefined)
206 to 208	O=C1Nc2ccccc2C1=C(c1ccc(Cl)cc1)c1ccc(Cl)cc1
202 to 204	Cc1c(NC(=O)c2ccc(-c3ccc(F)cc3)cc2)ccc2cc(CN3CCC(CCCC(=O)N(C)C)CC3)cnc12
295 to 296	Cc1cc(=O)n2c3c(cc(C(O)(C(F)(F)F)C(F)(F)F)cc13)CCC2

SMILES	melting point [°C]
COC(=O)COc1cc2c(c3c1c(C(=O)C(N)=O)c(C)n3Cc1ccccc1)CCC2	135 to 138
CN1Cc2c(ccc(F)c2Cl)-n2c(c(C#CC(C)(C)O)[nH]c2=O)C1	208 to 209
CC(C)(C)c1ccc(S(=O)(=O)C(CCl)Sc2ccccc2)cc1 (centres undefined)	104 to 106
CC(C)(C)OC(=O)c1ncn2c1[C@@H]1CCCN1C(=O)c1cc(N)ccc1-2	223 to 224
S=P1(c2ccccc2)CCCC1	74
